Reference: publication PMC5237291, “Sigma-2 receptor agonist derivatives of 1-Cyclohexyl-4-[3-(5-methoxy-1,2,3,4-tetrahydronaphthalen-1-yl)propyl]piperazine (PB28) induce cell death via mitochondrial superoxide production and caspase activation in pancreatic cancer” (BMC Cancer, 2017)
Where two headings read alike, the source gives them in different places.

How the values were obtained:
AsPC1 cells = test: MitoSOX Red mitochondrial superoxide by flow cytometry, AsPC1; assay type: cell-based, human; conditions: 50 μM, 2 h
Method: (§1) MitoSOX™ Red reagent is a novel fluorogenic dye specifically targeted to mitochondria in live cells. Oxidation of MitoSOX™ Red reagent by superoxide produces red fluorescence. Mitochondrial superoxide is generated as a byproduct of oxidative phosphorylation. […] MitoSOX™ Red reagent is readily oxidized by superoxide but not by other ROS- or reactive nitrogen species (RNS)–generating systems. Panc02, AsPC-1, KP-2 or BxPC3 cells were seeded into 12-well plates 24 h before treatment with sigma-2 ligands (50 μM) for 2 h at 37°C in presence or absence of α-tocopherol (100 μM) followed by staining with MitoSOX™ Red (5 μM). Two hours after red dye addition, the cells were washed twice with PBS and harvested with trypsin/EDTA buffer. The cells were washed twice with PBS before analysis with FACSCalibur (BD Bioscience, San Jose, CA). The oxidation product of MitoSOX™ Red by mitochondrial superoxide fluoresces with an emission maximus of 580 nm and was detected in the FL3 channel. Experiment was performed in triplicates.

Panc-1 cells = test: MTT cell viability, Panc-1; assay type: cell-based; conditions: Homo sapiens, 24 h treatment, viability relative to vehicle
Method: (§2) Determination of cell growth was performed using the MTT assay at 24 h. On day 1, pancreatic cancer cell lines were plated at a density of 2 × 10^4 cells/well in black clear-bottom 96-well plates for 24 h prior to treatment in a volume of 100 μL. On day 2, the cells were treated for 24 h with the various drugs concentration (1 μM-100 μM). Untreated cells served as a control. The various drug-solvents (EtOH, DMSO) were added in each control to evaluate a possible solvent cytotoxicity. After the established incubation time with drugs (24 h), MTT (0.5 mg/ml) was added to each well, and after 3–4 h incubation at 37 °C, the supernatant was removed. The formazan crystals were solubilized using 100 μl of DMSO/EtOH (1:1) and the absorbance values at 570 and 630 nm were determined on the multi-mode microplate reader (BioTek instruments, Winooski, VT). Different drug concentrations were assayed in triplicates.
(§3) Statistical analyses and data plotting were performed using GraphPad Prism software version 6.03 (San Diego, CA). Results were expressed as mean ± standard error of the mean of at least 3 biological replicates. EC50 values were calculated by curve fitting normalized viability versus drug concentration. Differences in viability, caspase-3 activity, and tumor volume were analyzed using two-way ANOVA to identify differences and confirmed with paired two tailed t-tests. Mann-Whitney test was used to compare the difference in CBC and biochemistry analyses. Kaplan-Meier survival analyses were used to assess differences between treatment groups and were compared using a log-rank test. A p-value < 0.05 was considered significant for all analyses.

[1] = Toxicity evaluation on mice not bearing tumor (CBC, serum chemistry, pathology); assay type: in vivo, C57BL/6 mice; conditions: for Off-target effects by necropsy and laboratory evaluations: naïve C57BL/6 mice, continuous daily treatment
Method: […] Mice from each treatment cohort were assessed for pathologic evaluation (Digestive Diseases Research Core Center at our institution). Blood was collected for complete blood count (CBC) and biochemical analysis (AST, ALT, BUN, total protein, glucose and Cr). Organs were examined grossly and histologically.

BxPC3 cells [2] = test: MTT cell viability, BxPC3; assay type: cell-based, human; conditions: 24 h treatment, viability relative to vehicle
Method: as §2, §3

Panc02 tumors = test: In vivo tumor growth and survival, Panc02 tumors in C57BL/6 mice; conditions: for Effect on tumor volume (in words): daily i.p. treatment, compared to vehicle or gemcitabine
Method: In this pre-clinical model, we utilized the Panc02 cell line, which is weakly immunogenic in C57BL/6 mice and aggressive with a subcutaneous inoculum of 1 × 10^5 cells being lethal within 6–8 weeks. In vivo studies with mice were performed to compare the effect of sigma-2 ligands with gemcitabine. Mice treated with vehicle alone (a mixture of 5% DMSO, 5% EtOH, and 10% Cremophor in H2O) served as the control cohort. Female C57BL/6 mice (10 weeks old, National Cancer Institute Laboratories) were injected in the right flank with 200 μL of a single-cell suspension of Panc02 cells in non-supplemented RPMI medium (1 × 10^6 cells per mouse). Treatment began when the mean tumor diameter was ~ 5 mm. […] Tumors were measured three times weekly in two dimensions with a digital caliper, and tumor volumes were calculated by the standard formula of Tumor Volume = Length x Width^2 × 0.5. All mice were euthanized when tumors reached a diameter of 15 mm or had ulcerated.

KP02 cells = test: MTT cell viability, KP02; assay type: cell-based, mouse; conditions: 24 h treatment, viability relative to vehicle
Method: as §2, §3

AsPC-1 cells = test: MTT cell viability, AsPC-1; assay type: cell-based; conditions: Homo sapiens, ASPC1, 24 h treatment, viability relative to vehicle
Method: as §2, §3

KCKO cells = test: MTT cell viability, KCKO; assay type: cell-based; conditions: Mus musculus, 24 h treatment, viability relative to vehicle
Method: as §2, §3

MIAPaCa-2 cells = test: MTT cell viability, MIAPaCa-2; assay type: cell-based; conditions: Homo sapiens, MIA PaCa-2, 24 h treatment, viability relative to vehicle
Method: as §2, §3

sigma-2 receptor = conditions: read-out: Affinity (Ki) σ2, cited from earlier work
BxPC3 cells [3] = test: MitoSOX Red mitochondrial superoxide by flow cytometry, BxPC3; assay type: cell-based, human; conditions: 50 μM, 2 h
Method: as §1

caspase-3 = test: Caspase-Glo caspase-3 activity in Panc02 cells; assay type: cell-based, mouse; conditions: 200 μM, 5 h
Method: Caspase-3 activity was measured in Panc02 cell lines with a Caspase-Glo® Assay Systems (Promega) according to protocol in which the reagent contain luminogenic caspase substrates that cleaved by activated caspase. […] The contents were then mixed using plate shaker for 30 s, and incubated at room temperature for 90 min. Luminescence signal was measured using multi-mode microplate reader (BioTek). Assay was performed in triplicates, and caspase activity was plotted compared cells treated with DMSO as a control.

Panc02 cells [4] = test: MTT cell viability, Panc02; assay type: cell-based; conditions: Mus musculus, 24 h treatment, viability relative to vehicle
Method: as §2, §3

Panc02 cells [5] = test: ROS interference in cell viability (MTT with antioxidants); assay type: cell-based, mouse; conditions: Panc02 cells, ligand 50 μM with NAC 100 μM, 24 h
Method: The interference of ROS in cell viability was indirectly determined by MTT assay reported above at 24 h. On day 1, Panc02 cells were plated at a density of 2 × 10^4 cells/well in opaque 96-well, clear-bottom plates 24 h prior to treatment. On day 2, cells were treated with the drugs (50 μM) in the presence or absence of α-tocopherol (100 μM) or N-Acetyl-L-cysteine (100 μM). After incubation (24 h) with drugs, MTT assay was performed as above.

Panc02 cells [6] = test: MitoSOX Red mitochondrial superoxide by flow cytometry, Panc02; assay type: cell-based, mouse; conditions: Panc02 cells, 50 μM, 2 h
Method: as §1

c1ccc2c(c1)c1ccccc1n2CCCN1CCN(C2CCCCC2)CC1 [F281, 1-Cyclohexyl-4-[3-(9H-carbazol-9-yl)propyl]piperazine]
Mitochondrial superoxide generation in AsPC1 (AsPC1 cells): generated some mitochondrial superoxide
EC50 (Panc-1 cells): > 100 µM
Off-target effects by necropsy and laboratory evaluations [1]: no major off-target effects
EC50 (BxPC3 cells [2]): 42 µM
EC50 (BxPC3 cells [2]; Homo sapiens, BXPC-3, 24 h): ~45 µM
Effect on tumor volume (in words) (Panc02 tumors; Panc02 s.c. in female C57BL/6): did not confer a significantly different tumor volume than vehicle alone
EC50 (KP02 cells): 49 µM
EC50 (KP02 cells; Mus musculus, 24 h): ~45 µM
EC50 (AsPC-1 cells): 98 µM
EC50 (KCKO cells): 62 µM
EC50 (MIAPaCa-2 cells): 29 µM
Ki (sigma-2 receptor; ref Ferorelli et al., 2007 [27]): 0.0126 µM
Mitochondrial superoxide generation in BxPC3 (BxPC3 cells [3]): generated some mitochondrial superoxide
Caspase-3 activation (in words) (caspase-3; compared to DMSO control): did not activate at all
EC50 (Panc02 cells [4]): 37 µM

Fc1cccc(F)c1[C@H]1CC[C@@H](N2CCN(C3CCCCC3)CC2)CC1 [PB282]
EC50 (Panc-1 cells): > 100 µM
Cell death on co-treatment with NAC (Panc02 cells [5]): even higher levels of cell death
Off-target effects by necropsy and laboratory evaluations [1]: no major off-target effects
Creatinine ([1]; not tumor-bearing C57BL/6 mice, n = 3, daily i.p., 5 days, control 0.34 ± 0.02): 0.35 ± 0.03 mg/dL
AST ([1]; not tumor-bearing C57BL/6 mice, n = 3, daily i.p., 5 days, control 5.6 ± 0.05): 5.5 ± 0.07 μ/L
RBC ([1]; not tumor-bearing C57BL/6 mice, n = 3, daily i.p., 5 days, control 7.14 ± 0.1): 9.91 ± 0.31 10^6/μL
WBC ([1]; not tumor-bearing C57BL/6 mice, n = 3, daily i.p., 5 days, control 10.58 ± 0.2): 5.78 ± 0.78 10^3/μL
HGB ([1]; not tumor-bearing C57BL/6 mice, n = 3, daily i.p., 5 days, control 10.7 ± 0.7): 15 ± 0.4 g/dL
MCH ([1]; not tumor-bearing C57BL/6 mice, n = 3, daily i.p., 5 days, control 15 ± 0.54): 15.15 ± 0.05 pg
BUN ([1]; not tumor-bearing C57BL/6 mice, n = 3, daily i.p., 5 days, control 27 ± 0.4): 24.5 ± 0.5 mg/dL
MCHC ([1]; not tumor-bearing C57BL/6 mice, n = 3, daily i.p., 5 days, control 29.2 ± 1.21): 29.4 ± 0.3%
HCT ([1]; not tumor-bearing C57BL/6 mice, n = 3, daily i.p., 5 days, control 36.6 ± 0.08): 51.1 ± 1.9%
MCV ([1]; not tumor-bearing C57BL/6 mice, n = 3, daily i.p., 5 days, control 51.2 ± 0.32): 51.55 ± 0.35 fL
ALT ([1]; not tumor-bearing C57BL/6 mice, n = 3, daily i.p., 5 days, control 260 ± 21): 221 ± 63 μ/L
Platelets ([1]; not tumor-bearing C57BL/6 mice, n = 3, daily i.p., 5 days, control 486 ± 67): 649.5 ± 167.5 10^3/μL
EC50 (BxPC3 cells [2]; Homo sapiens, BXPC-3, 24 h): > 100 µM
Effect on tumor volume (in words) (Panc02 tumors; Panc02 s.c. in female C57BL/6): decreased tumor volume similar to gemcitabine alone
Mean tumor volume following conclusion of treatment (Panc02 tumors; Panc02 s.c. in female C57BL/6, i.p. daily for two weeks (gemcitabine once weekly), vehicle mean = 924 mm^3): 483 mm^3
Median survival (Panc02 tumors; Panc02 tumor-bearing C57BL/6 mice, treatment discontinued on day 15, DMSO (vehicle) 23 days): 29 days
EC50 (KP02 cells; Mus musculus, 24 h): > 100 µM
EC50 (AsPC-1 cells): > 100 µM
EC50 (KCKO cells): 90 µM
EC50 (MIAPaCa-2 cells): 51 µM
Increase in MitoSOX fluorescence intensity compared to cells treated with DMSO (Panc02 cells [6]): 6.7 fold
Ki (sigma-2 receptor; ref Abate, et al., 2011 [28]): 0.0141 µM
Increase of caspase-3 activity compared to cells treated with DMSO vehicle (caspase-3): 11.8 fold
EC50 (Panc02 cells [4]): > 100 µM
